The values below come from PMC5842274, “Anti-GD2 Immunoliposomes for Targeted Delivery of the Survivin Inhibitor Sepantronium Bromide (YM155) to Neuroblastoma Tumor Cells” (Pharmaceutical Research, 2018).

Molecules are shown by their SMILES. Where two headings read alike, the source gives them in different places.

The conditions of data set [1]: Table I, no reference given; cited from earlier work.
For data set [2] the following is noted: cited from earlier work.
A further data set deals with neuroblastoma cell lines. Particulars: most neuroblastoma cell lines; Table I, no reference given; cited from earlier work.
Data set [3] in a line: Pharmacokinetic pilot study, YM155 in blood/plasma after single i.v. administration. The data set is classed as in vivo, mice. Particulars: for half-life / Vd: 1 mg/kg. As for the experimental part:
(§1) Animal experiments were conducted in compliance with the national regulations and have been approved by the local ethical committee for animal experimentation. NMRI nu/nu female mice (25 g, Charles River, Massachusetts, USA) were housed in a temperature-controlled room (approximately 22°C) with 55 to 65% relative humidity, a photoperiod of 12/12 h with free access to water and pelleted rodent food. The mice were challenged with KCNR neuroblastoma (passage 1–2) derived from DAG102776 by serial xenotransplantation in both flanks. When the tumor growth reached the size of approximately 8 × 8 mm, mice were randomly divided in three groups that were injected intravenously with either free YM155 dissolved in HBS (1 mg/kg, n = 11), YM155 loaded anti-GD2-immunoliposomes (3 μmol TL/kg diluted in HBS, equivalent to 1 mg/kg YM155, n = 11), or an equivalent dose of YM155 loaded control liposomes (n = 11). At designated time points (i.e. 5 min, 9 min, 15 min, 30 min, 1 h, 4 h, 8 h, 24 h, 48 h and 72 h), blood samples (approximately 0.5 ml per sampling time point) were collected in tubes containing EDTA as anticoagulant and mice were sacrificed. Blood samples and excised tumors were stored at −80°C until analysis of their YM155 concentration by liquid chromatography-tandem mass spectrometry (LC-MS/MS) ([34]).
(§2) Pharmacokinetic analysis of the in-vivo data was performed using the Pk Solver 2.0 add-in template for Microsoft Excel, as described previously ([35]). Pharmacokinetic parameters were determined by non-compartmental analysis (NCA) using linear-logarithmic trapezoidal model fitting, or by compartmental analysis (CA) using 1-compartment model fitting.

A short description of data set [4]: Tumor accumulation of YM155 in subcutaneous KCNR tumor xenografts. The note with it: single i.v. 1 mg/kg. Format: in vivo, mice. The protocol:
as §1, with “At designated time points (i.e. 5 min, 9 min, 15 min, 30 min, 1 h, 4 h, 8 h, 24 h, 48 h and 72 h), blood samples (approximately 0.5 ml per sampling time point) were collected in tubes containing EDTA as anticoagulant and mice were sacrificed. Blood samples and excised tumors were stored at −80°C until analysis of their YM155 concentration by liquid chromatography-tandem mass spectrometry (LC-MS/MS) ([34]).” left out
as §2

A further data set concerns KCNR cells. Nature of the data set: alamarBlue viability assay. The note with it: 24 h incubation, read-out: IC50 (cell viability). The data set is classed as cell-based. The protocol: Efficacy of YM155 loaded liposomes (targeted and non-targeted control liposomes) was studied on KCNR by alamarBlue viability assay (Thermo Fischer Scientific), according to the supplier’s instruction. KCNR cells were seeded at 20 × 10^3 cells/well in 96 well Greiner polystyrene plates (Sigma Aldrich) in complete DMEM medium and allowed to adhere overnight. The medium was replaced by cell culture medium supplemented with YM155 or YM155 liposomal formulations at concentrations ranging from 0.8 to 100 nM, after which the cell culture were incubated for 24 h at 37°C. Control experiments included incubations with empty liposomes (i.e. without YM155) at equivalent TL concentrations in the range of 0.08–11 μM TL. After 24 h of incubation, medium was replaced with drug-free medium containing alamarBlue reagent (10 vol%), after which cells were incubated for an extra 3 h at 37°C. Fluorescence was quantified with a microplate reader (Mithras LB940) and used to calculate the relative percentage of living cells normalized against control cells that had not been treated with YM155. IC50 values were calculated by curve fitting using non-linear regression in Graph Pad Prism 6.0.

As to `COCCn1c2c([n+](Cc3cnccn3)c1C)C(=O)c1ccccc1C2=O` [YM155, Sepantronium bromide], the lipophilicity (LogP) in data set [1] is −3.7. For the same compound, the Solubility in water result in data set [1] was “At least 0,5 mg/ml”. Besides, the pKa in data set [1] was 5.3. Further, in data set [2], the Previously reported half-life is on record as ~ 1 h. Besides, the Plasma half-life in data set [2] (mice and rats) is 60 to 120 min. For the same compound, the IC50 result is “Low nM range for most neuroblastoma cell lines” in the data set on neuroblastoma cell lines and 27 nM in the data set with KCNR cells. The AUC(0-inf) in data set [3] (female, NMRI nu/nu, mouse, iv, single i.v. 1 mg/kg, NCA, blood/plasma) worked out at 136 ng·h/mL. Further, the half-life is 24 min in data set [3] (female, NMRI nu/nu, mouse, plasma, iv, single i.v. 1 mg/kg YM155, female mice with KCNR xenografts, non-compartmental analysis, read-out: t1/2 (NCA) (converted)) and 12 min in data set [3] (female, NMRI nu/nu, mouse, plasma, iv, single i.v. 1 mg/kg, compartmental analysis, 1-compartment model, read-out: CA t1/2 (converted)). Further, the Vd in data set [3] (female, NMRI nu/nu, mouse, plasma, iv, single i.v. 1 mg/kg, NCA, read-out: Vss) came out at 2.47 L/kg; in data set [3] (female, NMRI nu/nu, mouse, plasma, iv, single i.v. 1 mg/kg, NCA, read-out: Vz), 4.65 L/kg. In addition, the clearance in data set [3] (female, NMRI nu/nu, mouse, plasma, iv, single i.v. 1 mg/kg, NCA) was 122 mL/min/kg. In addition, in data set [3] (female, NMRI nu/nu, mouse, plasma, iv, single i.v. 1 mg/kg, NCA, read-out: MRT0-∞), the MRT inf turned out to be 20.4 min. The “Time plasma levels were detectable post administration” value in data set [3] (single i.v. 1 mg/kg) is reported as “about 8 h”. In addition, the “Time intratumor levels of YM155 could be detected post injection” value in data set [4] was “up to 24 h”.
